Assay results taken from the OPERA property sets (Mansouri et al. 2018).

Q: With `O=C1CCc2ccccc2O1` as the molecule, how does the boiling point read?
A: 272 °C

Q: And the melting point?
A: 25 °C

Q: For `Cc1cccc2ccccc12`, which boiling point is on record?
A: 245 °C

Q: And the log10 Henry constant (atm·m³/mol)?
A: -3.29

Q: And the log10 Koc (L/kg)?
A: 3.36

Q: What about the log10 biodegradation half-life (days) of the same molecule?
A: 0.962

Q: What about the log10 vapour pressure (mmHg) of the same molecule?
A: -1.17

Q: What about the melting point of the same molecule?
A: -30.4 °C

Q: What about the ready biodegradability of the same molecule?
A: not readily biodegradable

Q: Which boiling point does the source give for `COC(=O)CC(O)(CC(=O)OC)C(=O)OC` here?
A: 285 °C

Q: What about the melting point of the same molecule?
A: 79.3 °C

Q: Which melting point does the source give for `CC(=O)Oc1ccc(C2(c3ccc(OC(C)=O)cc3)C(=O)Nc3ccccc32)cc1` here?
A: 242 °C

Q: With `C1=COCC1` as the molecule, how does the boiling point read?
A: 54.5 °C

Q: What about the log10 vapour pressure (mmHg) of the same molecule?
A: 2.4

Q: What does the source list for `CN(C)C(=O)c1ccccc1`?
A: log10 Koc (L/kg): 1.6; melting point: 44 °C

Q: With `O=S(=O)(c1ccc(Cl)cc1)c1cc(Cl)c(Cl)cc1Cl` as the molecule, how does the log10 vapour pressure (mmHg) read?
A: -9.62

Q: And the melting point?
A: 147 °C

Q: What about the ready biodegradability of the same molecule?
A: not readily biodegradable

Q: Which boiling point does the source give for `FC(F)(Br)C(F)(F)Br` here?
A: 47.3 °C

Q: What about the log10 vapour pressure (mmHg) of the same molecule?
A: 2.51

Q: And the melting point?
A: -110 °C

Q: And the ready biodegradability?
A: not readily biodegradable

Q: What does the source list for `CCC(=O)c1ccccc1`?
A: boiling point: 218 °C; log10 vapour pressure (mmHg): -0.77; melting point: 18.6 °C; ready biodegradability: readily biodegradable

Q: For `CC(=O)Oc1ccc2c3c1O[C@H]1[C@@H](OC(C)=O)C=C[C@H]4[C@@H](C2)N(C)CC[C@@]341`, which log10 vapour pressure (mmHg) is on record?
A: -9.12

Q: What about the melting point of the same molecule?
A: 173 °C

Q: Which melting point does the source give for `C[C@H](NC(=O)c1ccccc1)C(=O)O` (racemic) here?
A: 166 °C

Q: Which boiling point does the source give for `C#CC1(O)CCCC1` here?
A: 158 °C

Q: What about the melting point of the same molecule?
A: 27 °C

Q: For `CCCCC(=O)OCc1ccco1`, which boiling point is on record?
A: 228 °C

Q: What does the source list for `N#CCC(=O)O`?
A: melting point: 66 °C; ready biodegradability: readily biodegradable

Q: Which melting point does the source give for `CCCCC1CO1` (stereo not given) here?
A: 94 °C

Q: With `CCCCCCCCCCOC(=O)Cl` as the molecule, how does the boiling point read?
A: 220 °C

Q: And the log10 vapour pressure (mmHg)?
A: -1.59

Q: For `CC(=O)C(=O)O`, which log10 Henry constant (atm·m³/mol) is on record?
A: -8.49

Q: What about the log10 vapour pressure (mmHg) of the same molecule?
A: 0.111

Q: What about the melting point of the same molecule?
A: 13.8 °C

Q: Which log10 Henry constant (atm·m³/mol) does the source give for `Clc1cccc(-c2c(Cl)cc(Cl)c(Cl)c2Cl)c1Cl` here?
A: -4.41

Q: For `Cc1ccc(S(=O)(=O)Cl)cc1`, which melting point is on record?
A: 71 °C

Q: What about the ready biodegradability of the same molecule?
A: readily biodegradable

Q: For `O=C(Nc1ccccc1)c1cc2ccccc2cc1O`, which melting point is on record?
A: 248 °C

Q: What about the ready biodegradability of the same molecule?
A: not readily biodegradable

Q: Which boiling point does the source give for `CC(Cl)C(C)(C)Cl` (stereo not given) here?
A: 129 °C

Q: With `C1=Cc2ccccc2CC1` as the molecule, how does the boiling point read?
A: 206 °C

Q: What about the melting point of the same molecule?
A: -8 °C

Q: For `CCCCCCCCCCCCCCCCCCCCCC(=O)OCC`, which melting point is on record?
A: 50 °C

Q: For `CCSCCSP(=O)(OC)OC`, which log10 Koc (L/kg) is on record?
A: 1.49

Q: And the log10 vapour pressure (mmHg)?
A: -3.52

Q: With `CCOc1ccc(NC(N)=O)cc1` as the molecule, how does the melting point read?
A: 174 °C

Q: Which melting point does the source give for `CCC(=O)O[C@](Cc1ccccc1)(c1ccccc1)[C@H](C)CN(C)C` here?
A: 75.5 °C

Q: For `CCC(C)(C)S`, which boiling point is on record?
A: 99.1 °C

Q: What about the log10 vapour pressure (mmHg) of the same molecule?
A: 1.68

Q: Which boiling point does the source give for `COc1cc(C)cc(OC)c1` here?
A: 244 °C

Q: With `CC(C)Nc1ccc(NC(C)C)c2c1C(=O)c1ccccc1C2=O` as the molecule, how does the ready biodegradability read?
A: not readily biodegradable

Q: With `CC(C)C=CCO` as the molecule, how does the boiling point read?
A: 159 °C

Q: With `CC1CCCCCC1=O` (stereo not given) as the molecule, how does the boiling point read?
A: 185 °C

Q: With `O=C(O)c1c(F)c(F)cc(F)c1F` as the molecule, how does the melting point read?
A: 151 °C

Q: With `C=CCCCO` as the molecule, how does the boiling point read?
A: 141 °C

Q: What does the source list for `O=C(OC(=O)c1ccccc1)c1ccccc1`?
A: boiling point: 360 °C; log10 vapour pressure (mmHg): -3.93; melting point: 42.5 °C

Q: Which log10 Koc (L/kg) does the source give for `CCOC(=O)Cc1cccc2ccccc12` here?
A: 2.48

Q: What about the melting point of the same molecule?
A: 88.5 °C

Q: Which melting point does the source give for `Cc1cccc(C)c1NC(=O)C1CCCCN1C` (stereo not given) here?
A: 150 °C

Q: With `Cc1ccc2ccc(C)cc2c1` as the molecule, how does the boiling point read?
A: 265 °C

Q: And the log10 vapour pressure (mmHg)?
A: -2.25

Q: What about the melting point of the same molecule?
A: 97 °C

Q: For `Cc1cc(O)c(C)c(O)c1`, which boiling point is on record?
A: 278 °C

Q: And the melting point?
A: 163 °C

Q: What does the source list for `CCN(CC)C(=O)/C(Cl)=C(/C)OP(=O)(OC)OC`?
A: log10 vapour pressure (mmHg): -4.78; melting point: -45 °C

Q: Which boiling point does the source give for `COC(=O)C(Br)CBr` (stereo not given) here?
A: 206 °C

Q: For `CC(C)=C1CC[C@@H](C)CC1=O`, which boiling point is on record?
A: 224 °C

Q: What about the log10 vapour pressure (mmHg) of the same molecule?
A: -0.91

Q: For `C=CCOC1=NS(=O)(=O)c2ccccc21`, which melting point is on record?
A: 138 °C

Q: And the ready biodegradability?
A: not readily biodegradable

Q: Which melting point does the source give for `Cc1ccc(N=C=Nc2ccc(C)cc2)cc1` here?
A: 58.5 °C

Q: With `CCN(CC)CCOC(=O)C(c1ccccc1)c1ccccc1` as the molecule, how does the melting point read?
A: 114 °C

Q: With `CCOC(=O)CCCCCCCCCCCCCCCCC(=O)OCC` as the molecule, how does the melting point read?
A: 54.5 °C

Q: Which melting point does the source give for `CCCOc1cc(N)ccc1C(=O)OCCN(CC)CC.Cl` here?
A: 149 °C

Q: For `CCOc1cc(OCC)cc(OCC)c1`, which melting point is on record?
A: 43.5 °C

Q: With `CN(C)C(=O)N(C(=O)c1ccccc1)c1ccc(Cl)c(Cl)c1` as the molecule, how does the melting point read?
A: 119 °C

Q: For `C/C(=C/CC[C@@]1(C)C2C[C@@H]3[C@H](C2)C31C)CO`, which boiling point is on record?
A: 302 °C

Q: Which boiling point does the source give for `CC#CCCC` here?
A: 84.5 °C

Q: And the melting point?
A: -89.6 °C

Q: Which results are given for `CC(C)CCC[C@@H](C)[C@H]1CC[C@H]2[C@@H]3CC=C4C[C@@H](O)CC[C@]4(C)[C@H]3CC[C@]12C`?
A: boiling point: 360 °C; melting point: 145 °C

Q: With `Cc1ccc(SSc2ccc(C)cc2)cc1` as the molecule, how does the melting point read?
A: 47.5 °C

Q: Which melting point does the source give for `CCN(CC)C(=O)N1CCN(C)CC1` here?
A: 48 °C

Q: For `CC(=O)Oc1ccc(-c2ccccc2)cc1`, which melting point is on record?
A: 89 °C

Q: With `COc1ccc(C(=O)O)c(OC)c1OC` as the molecule, how does the melting point read?
A: 100 °C

Q: Which boiling point does the source give for `c1ccc(Sc2ccccc2)cc1` here?
A: 296 °C

Q: And the log10 vapour pressure (mmHg)?
A: -2.12

Q: What about the melting point of the same molecule?
A: -25.9 °C

Q: What does the source list for `CCOC(=O)CC(=O)OCC`?
A: boiling point: 200 °C; log10 vapour pressure (mmHg): -0.57; melting point: -50 °C; ready biodegradability: readily biodegradable

Q: Which results are given for `O=Cc1ccc2c(c1)OCO2`?
A: boiling point: 263 °C; log10 vapour pressure (mmHg): -2; melting point: 37 °C; ready biodegradability: readily biodegradable

Q: With `O=C1c2ccccc2C(=O)c2c(O)c(O)cc(O)c21` as the molecule, how does the melting point read?
A: 259 °C

Q: For `COC(=O)c1ccccc1OC(C)=O`, which melting point is on record?
A: 51.5 °C

Q: What does the source list for `CCCCCCCCCCCCCCCC(=O)O`?
A: boiling point: 352 °C; log10 vapour pressure (mmHg): -6.42; melting point: 61.8 °C; ready biodegradability: readily biodegradable

Q: Which log10 Koa does the source give for `Clc1cc2oc3c(Cl)c(Cl)c(Cl)cc3c2cc1Cl` here?
A: 10.4

Q: What about the log10 vapour pressure (mmHg) of the same molecule?
A: -8.58

Q: What about the melting point of the same molecule?
A: 196 °C
